Assay results: US20090087845A1, “Genetic Markers Of True Low Birth Weight” (priority 2005, published 2009)

Test system: placental gene expression
[1] = rat placenta, 0, 5%, 10% in drinking water
[2] = rat placenta, 5% in drinking water throughout pregnancy
[3] = rat placenta, 5% or 10% in drinking water throughout pregnancy, p<0.05 in both t-tests
[4] = rat placenta, 10% in drinking water throughout pregnancy

Which “Mean 10%, Pex6 (1368264_at)” value (10% alcohol group, Mean Contr 6.259265) does the source give for CCO [alcohol] here?
The value was 5.303.

What about the “Mean 10%, St3gal3 (1373607_at)” value (10% alcohol group, Mean Contr 6.298338) of the same compound?
The value was 5.59.

What about the “Mean 10%, Kbtbd4_predicted (1374614_at)” value (10% alcohol group, Mean Contr 6.314496) of the same compound?
The value was 5.325.

What about the “Mean 10%, Phyh (1393245_at)” value (10% alcohol group, Mean Contr 6.483711) of the same compound?
Its value is 5.227.

And the “Mean 10%, LOC287533 (1373627_at)” value (10% alcohol group, Mean Contr 6.526312)?
The value was 5.351.

What about the “Mean 10%, Transcribed locus (1388465_at)” value (10% alcohol group, Mean Contr 6.549543) of the same compound?
Its value is 5.667.

What about the “Mean 10%, Mss4 (1376745_at)” value (10% alcohol group, Mean Contr 6.629539) of the same compound?
Its value is 5.49.

And the “Mean 10%, Plag1 (1391714_at)” value (10% alcohol group, Mean Contr 6.670053)?
Its value is 5.554.

What about the “Mean 10%, Sumf1_predicted (1389833_at)” value (10% alcohol group, Mean Contr 6.839621) of the same compound?
Its value is 5.774.

What about the “Mean 10%, Polr3e_predicted (1374415_at)” value (10% alcohol group, Mean Contr 6.849002) of the same compound?
Its value is 5.78.

What about the “Mean 10%, RGD1308959 (1399108_at)” value (10% alcohol group, Mean Contr 6.859582) of the same compound?
Its value is 5.829.

What about the “Mean 10%, Wig1 (1387021_at)” value (10% alcohol group, Mean Contr 6.895168) of the same compound?
The value was 5.95.

What about the “Mean 10%, probe set 1379314_at” value (10% alcohol group, Mean Contr 6.970231) of the same compound?
Its value is 5.514.

And the “Mean 10%, Ddx59 (1383635_at)” value (10% alcohol group, Mean Contr 6.981191)?
The value was 6.018.

And the “Mean 10%, Rnd3 (1394077_at)” value (10% alcohol group, Mean Contr 7.018906)?
The value was 6.069.

And the “Mean 10%, probe set 1393037_at” value (10% alcohol group, Mean Contr 7.020197)?
The value was 6.384.

And the “Mean 10%, Slc39a4_predicted (1374366_at)” value (10% alcohol group, Mean Contr 7.252498)?
Its value is 5.652.

What about the “Mean 10%, RGD1305243_predicted (1374076_at)” value (10% alcohol group, Mean Contr 7.300542) of the same compound?
Its value is 6.175.

What about the “Mean 10%, Transcribed locus (1393310_at)” value (10% alcohol group, Mean Contr 7.364799) of the same compound?
The value was 5.834.

And the “Mean 10%, Gusb (1367901_at)” value (10% alcohol group, Mean Contr 7.420203)?
The value was 6.432.

And the “Mean 10%, probe set 1392953_at” value (10% alcohol group, Mean Contr 7.435411)?
The value was 6.103.

What about the “Mean 10%, Crsp9_predicted (1377263_at)” value (10% alcohol group, Mean Contr 7.471023) of the same compound?
The value was 5.974.

And the “Mean 10%, probe set 1389582_at” value (10% alcohol group, Mean Contr 7.588214)?
The value was 6.297.

And the “Mean 10%, Transcribed locus (1393226_at)” value (10% alcohol group, Mean Contr 7.705027)?
The value was 6.077.

What about the “Mean 10%, RGD1565289_predicted (1375297_at)” value (10% alcohol group, Mean Contr 7.731478) of the same compound?
The value was 6.615.

What about the “Mean 10%, Zfp207 (1394591_at)” value (10% alcohol group, Mean Contr 8.125942) of the same compound?
Its value is 6.769.

And the “Mean 10%, Akr7a2 (1367843_at)” value (10% alcohol group, Mean Contr 8.276972)?
Its value is 6.866.

And the “Mean 10%, Tparl (1373392_at)” value (10% alcohol group, Mean Contr 8.308305)?
Its value is 7.589.

What about the “Mean 10%, Mcts1 (1388660_at)” value (10% alcohol group, Mean Contr 8.623529) of the same compound?
The value was 7.771.

And the “Mean 10%, Hadhsc (1370237_at)” value (10% alcohol group, Mean Contr 8.793343)?
Its value is 8.015.

What about the “Mean 10%, Asah1 (1374770_at)” value (10% alcohol group, Mean Contr 9.074708) of the same compound?
The value was 7.952.

What about the “Mean 10%, Arts1 (1368356_a_at)” value (10% alcohol group, Mean Contr 9.55972) of the same compound?
The value was 8.725.

What about the “Mean 10%, Ndufb5_predicted (1388304_at)” value (10% alcohol group, Mean Contr 10.12286) of the same compound?
The value was 9.267.

What about the “Mean 10%, MGC72992 (1389325_at)” value (10% alcohol group, Mean Contr 10.24563) of the same compound?
Its value is 9.571.

What about the “Mean 10%, Vps35_mapped (1372806_at)” value (10% alcohol group, Mean Contr 10.46183) of the same compound?
Its value is 9.969.

And the “sig down and spec alc, Arts1 (1368356_a_at)” value (contr vs 5% vs 10% alcohol)?
The value was “YES”.

What about the “sig down and spec alc, Cdca7 (1374540_at)” value (contr vs 5% vs 10% alcohol) of the same compound?
Its value is “YES”.

And the “sig down and spec alc, Centa2 (1369725_at)” value (contr vs 5% vs 10% alcohol)?
The value was “YES”.

And the “sig down and spec alc, Crsp9_predicted (1377263_at)” value (contr vs 5% vs 10% alcohol)?
The value was “YES”.

What about the “sig down and spec alc, Cul2_predicted (1378127_at)” value (contr vs 5% vs 10% alcohol) of the same compound?
The value was “YES”.

And the “sig down and spec alc, Ddx59 (1383635_at)” value (contr vs 5% vs 10% alcohol)?
Its value is “YES”.

What about the “sig down and spec alc, Ggps1 (1377866_a_at)” value (contr vs 5% vs 10% alcohol) of the same compound?
The value was “YES”.

And the “sig down and spec alc, Gusb (1367901_at)” value (contr vs 5% vs 10% alcohol)?
The value was “YES”.

And the “sig down and spec alc, Hadhsc (1370237_at)” value (contr vs 5% vs 10% alcohol)?
Its value is “YES”.

What about the “sig down and spec alc, Mcpt6 (1387334_at)” value (contr vs 5% vs 10% alcohol) of the same compound?
The value was “YES”.

And the “sig down and spec alc, Ndufb5_predicted (1388304_at)” value (contr vs 5% vs 10% alcohol)?
Its value is “YES”.

And the “sig down and spec alc, Pex6 (1368264_at)” value (contr vs 5% vs 10% alcohol)?
The value was “YES”.

And the “sig down and spec alc, Prdm2_mapped (1381229_at)” value (contr vs 5% vs 10% alcohol)?
Its value is “YES”.

And the “sig down and spec alc, RGD1305243_predicted (1374076_at)” value (contr vs 5% vs 10% alcohol)?
The value was “YES”.

And the “sig down and spec alc, RGD1565289_predicted (1375297_at)” value (contr vs 5% vs 10% alcohol)?
Its value is “YES”.

And the “sig down and spec alc, Tparl (1373392_at)” value (contr vs 5% vs 10% alcohol)?
The value was “YES”.

What about the “sig down and spec alc, Transcribed locus (1377021_at)” value (contr vs 5% vs 10% alcohol) of the same compound?
Its value is “YES”.

And the “sig down and spec alc, Trp53rk_predicted (1379488_at)” value (contr vs 5% vs 10% alcohol)?
The value was “YES”.

And the “sig down and spec alc, Vps35_mapped (1372806_at)” value (contr vs 5% vs 10% alcohol)?
The value was “YES”.

And the “number of placental genes down-regulated after excluding genes overlapping with caloric restriction, high fat diet and SSRI” value (rat placenta)?
Its value is 35 genes.

What about the “number of placental genes up-regulated after excluding genes overlapping with caloric restriction, high fat diet and SSRI” value (rat placenta) of the same compound?
The value was 7 genes.

What about the “placental expression of TP53 regulating kinase (Trp53rk)” value [1] of the same compound?
The value was “down-regulated”.

And the “placental expression of Zinc finger protein 365 (Zfp365)” value [1]?
Its value is “up-regulated”.

And the “placental expression of cell division cycle associated 7 (Cdca7)” value [1]?
The value was “down-regulated”.

And the “placental expression of inositol polyphosphate-1-phosphatase (Inpp1)” value [1]?
The value was “down-regulated”.

What about the “placental expression of peroxisomal biogenesis factor 6 (Pex6)” value [1] of the same compound?
Its value is “down-regulated”.

And the “placental expression of pleckstrin (Plek)” value [1]?
Its value is “down-regulated”.

And the “Mean 5% expression, probe set 1370527_a_at (casein kinase 1, delta, Csnk1d)” value [2]?
Its value is 9.839.

What about the “Mean 5% expression, probe set 1380351_at” value [2] of the same compound?
Its value is 4.282.

And the “Mean 5% expression, probe set 1381613_at (Transcribed locus)” value [2]?
Its value is 4.29.

And the “Mean 5% expression, probe set 1384272_at (Zinc finger protein 365, Zfp365)” value [2]?
The value was 4.227.

And the “Mean 5% expression, probe set 1384691_at (Transcribed locus, weakly similar to XP_577161.1)” value [2]?
The value was 4.65.

And the “Mean 5% expression, probe set 1384793_at” value [2]?
Its value is 4.485.

What about the “Mean 5% expression, probe set 1388932_at (laminin, alpha 5, Lama5)” value [2] of the same compound?
Its value is 9.683.

And the “Mean 5% expression, probe set 1391879_at (Transcribed locus)” value [2]?
Its value is 4.547.

What about the “number of probe sets up-regulated (0<5%<10% pattern)” value [3] of the same compound?
Its value is 8 probe sets.

What about the “number of probe sets with reduced expression in exposed animals (0>5%>10% pattern)” value [3] of the same compound?
The value was 57 probe sets.

And the “Mean 10% expression, probe set 1370527_a_at (casein kinase 1, delta, Csnk1d)” value [4]?
Its value is 10.03.

What about the “Mean 10% expression, probe set 1380351_at” value [4] of the same compound?
Its value is 4.908.

What about the “Mean 10% expression, probe set 1381613_at (Transcribed locus)” value [4] of the same compound?
The value was 4.634.

And the “Mean 10% expression, probe set 1384272_at (Zinc finger protein 365, Zfp365)” value [4]?
The value was 4.517.

What about the “Mean 10% expression, probe set 1384691_at (Transcribed locus, weakly similar to XP_577161.1)” value [4] of the same compound?
The value was 5.112.

And the “Mean 10% expression, probe set 1384793_at” value [4]?
Its value is 4.761.

And the “Mean 10% expression, probe set 1388932_at (laminin, alpha 5, Lama5)” value [4]?
The value was 9.897.

What about the “Mean 10% expression, probe set 1391879_at (Transcribed locus)” value [4] of the same compound?
Its value is 4.937.
